Consider eight compounds from publication PMC5580309, “Molecular-scale features that govern the effects of O-glycosylation on a carbohydrate-binding module” (Chemical Science, 2015).

By half-life is commonly meant the time needed for the level to fall by half in the phase considered. A lower half-life goes with rapid decline.

Bridge positions count the residues as written; N and C are the ends. Peptide text beside a SMILES is read from it. * marks the point of attachment. X2 = OC[C@H]1O[C@H](O[C@H]2[C@@H](O)[C@H](O)[C@@H](CO)O[C@@H]2*)[C@@H](O)[C@@H](O)[C@@H]1O; αMan = OC[C@H]1O[C@H](*)[C@@H](O)[C@@H](O)[C@@H]1O

The target of the data set is T1, thermolysin (Bacillus thermoproteolyticus, UniProt P00800).
T1 sequence (P00800 233-548): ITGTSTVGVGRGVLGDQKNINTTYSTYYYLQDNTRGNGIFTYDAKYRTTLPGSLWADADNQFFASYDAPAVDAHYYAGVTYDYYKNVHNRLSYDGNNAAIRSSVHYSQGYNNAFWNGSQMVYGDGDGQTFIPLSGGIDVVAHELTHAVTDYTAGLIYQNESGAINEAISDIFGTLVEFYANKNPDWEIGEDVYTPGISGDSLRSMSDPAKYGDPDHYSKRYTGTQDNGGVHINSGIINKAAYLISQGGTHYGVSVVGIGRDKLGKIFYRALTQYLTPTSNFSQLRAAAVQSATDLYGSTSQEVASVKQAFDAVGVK
The data set is described as follows: Proteolytic stability: half-life to thermolysin degradation. In kind it is in vitro ADME. The note with it: for half-life: thermolysin (isolated protease), thermolysin degradation, mean of three trials ± SD, procedures as described previously (ESI ref 18); for Change in Half-Life to Thermolysin Degradation: glyco-variant minus its corresponding unglycosylated CBM (e.g. 2-1), *** not used in the correlation plot. The procedure:
All error bars reported are standard deviations of data achieved from three separate trials.
cellulose that were determined in accordance with our procedures as described previously 18.
The results are presented as mean of three trials ± SD. *Denotes an averaged value of four trials

Compound `CC[C@H](C)[C@@H]1NC(=O)CNC(=O)CNC(=O)[C@@H](NC(=O)[C@H](CCC(N)=O)NC(=O)CNC(=O)[C@H](Cc2ccc(O)cc2)NC(=O)[C@H](Cc2c[nH]cn2)NC(=O)[C@H](CO)NC(=O)[C@H](CCC(N)=O)NC(=O)[C@@H](N)[C@@H](C)O)CSSC[C@@H]2NC(=O)[C@H]([C@@H](C)O)NC(=O)[C@H]([C@@H](C)O)NC(=O)CNC(=O)[C@H](CO)NC(=O)[C@H](C)NC(=O)[C@H](CSSC[C@@H](C(=O)N[C@@H](CC(C)C)C(=O)O)NC(=O)[C@H](CCC(N)=O)NC(=O)[C@H](CO)NC(=O)[C@H](Cc3ccc(O)cc3)NC(=O)[C@H](Cc3ccc(O)cc3)NC(=O)[C@@H]3CCCN3C(=O)[C@H](CC(N)=O)NC(=O)[C@H](CC(C)C)NC(=O)[C@H](C(C)C)NC(=O)[C@H](CCC(N)=O)NC2=O)NC(=O)[C@H](C(C)C)NC(=O)[C@H]([C@@H](C)O)NC(=O)[C@@H]2CCCN2C(=O)CNC(=O)[C@H](CO)NC(=O)[C@H](Cc2ccc(O)cc2)NC(=O)CNC1=O` [CBM variant 1] (H-TQSHYGQCGGIGYSGPTVCASGTTCQVLNPYYSQCL-OH; disulfide 8-25, 19-35) had a half-life of 13.8 ± 1.2 min.

`CC[C@H](C)[C@@H]1NC(=O)CNC(=O)CNC(=O)[C@@H](NC(=O)[C@H](CCC(N)=O)NC(=O)CNC(=O)[C@H](Cc2ccc(O)cc2)NC(=O)[C@H](Cc2c[nH]cn2)NC(=O)[C@H](CO[C@H]2O[C@H](CO)[C@@H](O)[C@H](O)[C@@H]2O)NC(=O)[C@H](CCC(N)=O)NC(=O)[C@@H](N)[C@@H](C)O)CSSC[C@@H]2NC(=O)[C@H]([C@@H](C)O)NC(=O)[C@H]([C@@H](C)O)NC(=O)CNC(=O)[C@H](CO)NC(=O)[C@H](C)NC(=O)[C@H](CSSC[C@@H](C(=O)N[C@@H](CC(C)C)C(=O)O)NC(=O)[C@H](CCC(N)=O)NC(=O)[C@H](CO)NC(=O)[C@H](Cc3ccc(O)cc3)NC(=O)[C@H](Cc3ccc(O)cc3)NC(=O)[C@@H]3CCCN3C(=O)[C@H](CC(N)=O)NC(=O)[C@H](CC(C)C)NC(=O)[C@H](C(C)C)NC(=O)[C@H](CCC(N)=O)NC2=O)NC(=O)[C@H](C(C)C)NC(=O)[C@H]([C@@H](C)O)NC(=O)[C@@H]2CCCN2C(=O)CNC(=O)[C@H](CO)NC(=O)[C@H](Cc2ccc(O)cc2)NC(=O)CNC1=O` [CBM variant 2] (H-TQS(αMan)HYGQCGGIGYSGPTVCASGTTCQVLNPYYSQCL-OH; disulfide 8-25, 19-35): the “Change in Half-Life to Thermolysin Degradation” value (“Change in Half-Life” for short) was determined as 51.6 min and the half-life was 65.4 ± 0.6 min.

With `CC[C@H](C)[C@@H]1NC(=O)CNC(=O)CNC(=O)[C@@H](NC(=O)[C@H](CCC(N)=O)NC(=O)CNC(=O)[C@H](Cc2ccc(O)cc2)NC(=O)[C@H](Cc2c[nH]cn2)NC(=O)[C@H](CO[C@H]2O[C@H](CO)[C@@H](O)[C@H](O)[C@@H]2O[C@H]2O[C@H](CO)[C@@H](O)[C@H](O)[C@@H]2O)NC(=O)[C@H](CCC(N)=O)NC(=O)[C@@H](N)[C@@H](C)O)CSSC[C@@H]2NC(=O)[C@H]([C@@H](C)O)NC(=O)[C@H]([C@@H](C)O)NC(=O)CNC(=O)[C@H](CO)NC(=O)[C@H](C)NC(=O)[C@H](CSSC[C@@H](C(=O)N[C@@H](CC(C)C)C(=O)O)NC(=O)[C@H](CCC(N)=O)NC(=O)[C@H](CO)NC(=O)[C@H](Cc3ccc(O)cc3)NC(=O)[C@H](Cc3ccc(O)cc3)NC(=O)[C@@H]3CCCN3C(=O)[C@H](CC(N)=O)NC(=O)[C@H](CC(C)C)NC(=O)[C@H](C(C)C)NC(=O)[C@H](CCC(N)=O)NC2=O)NC(=O)[C@H](C(C)C)NC(=O)[C@H]([C@@H](C)O)NC(=O)[C@@H]2CCCN2C(=O)CNC(=O)[C@H](CO)NC(=O)[C@H](Cc2ccc(O)cc2)NC(=O)CNC1=O` [CBM variant 3] (H-TQS(X2)HYGQCGGIGYSGPTVCASGTTCQVLNPYYSQCL-OH; disulfide 8-25, 19-35), the “Change in Half-Life” value came out at 114 min and the half-life is 128 ± 3.6 min.

Take `CC[C@H](C)[C@@H]1NC(=O)CNC(=O)CNC(=O)[C@@H](NC(=O)[C@H](CCC(N)=O)NC(=O)CNC(=O)[C@H](Cc2ccc(O)cc2)NC(=O)[C@H](Cc2c[nH]cn2)NC(=O)[C@H](CO)NC(=O)[C@H](CCC(N)=O)NC(=O)[C@H](C)N)CSSC[C@@H]2NC(=O)[C@H]([C@@H](C)O)NC(=O)[C@H]([C@@H](C)O)NC(=O)CNC(=O)[C@H](CO)NC(=O)[C@H](C)NC(=O)[C@H](CSSC[C@@H](C(=O)N[C@@H](CC(C)C)C(=O)O)NC(=O)[C@H](CCC(N)=O)NC(=O)[C@H](CO)NC(=O)[C@H](Cc3ccc(O)cc3)NC(=O)[C@H](Cc3ccc(O)cc3)NC(=O)[C@@H]3CCCN3C(=O)[C@H](CC(N)=O)NC(=O)[C@H](CC(C)C)NC(=O)[C@H](C(C)C)NC(=O)[C@H](CCC(N)=O)NC2=O)NC(=O)[C@H](C(C)C)NC(=O)[C@H]([C@@H](C)O)NC(=O)[C@@H]2CCCN2C(=O)CNC(=O)[C@H](CO)NC(=O)[C@H](Cc2ccc(O)cc2)NC(=O)CNC1=O` [CBM variant 4] (H-AQSHYGQCGGIGYSGPTVCASGTTCQVLNPYYSQCL-OH; disulfide 8-25, 19-35): the half-life was 9.6 ± 1.2 min.

As to `CC[C@H](C)[C@@H]1NC(=O)CNC(=O)CNC(=O)[C@@H](NC(=O)[C@H](CCC(N)=O)NC(=O)CNC(=O)[C@H](Cc2ccc(O)cc2)NC(=O)[C@H](Cc2c[nH]cn2)NC(=O)[C@H](CO[C@H]2O[C@H](CO)[C@@H](O)[C@H](O)[C@@H]2O)NC(=O)[C@H](CCC(N)=O)NC(=O)[C@H](C)N)CSSC[C@@H]2NC(=O)[C@H]([C@@H](C)O)NC(=O)[C@H]([C@@H](C)O)NC(=O)CNC(=O)[C@H](CO)NC(=O)[C@H](C)NC(=O)[C@H](CSSC[C@@H](C(=O)N[C@@H](CC(C)C)C(=O)O)NC(=O)[C@H](CCC(N)=O)NC(=O)[C@H](CO)NC(=O)[C@H](Cc3ccc(O)cc3)NC(=O)[C@H](Cc3ccc(O)cc3)NC(=O)[C@@H]3CCCN3C(=O)[C@H](CC(N)=O)NC(=O)[C@H](CC(C)C)NC(=O)[C@H](C(C)C)NC(=O)[C@H](CCC(N)=O)NC2=O)NC(=O)[C@H](C(C)C)NC(=O)[C@H]([C@@H](C)O)NC(=O)[C@@H]2CCCN2C(=O)CNC(=O)[C@H](CO)NC(=O)[C@H](Cc2ccc(O)cc2)NC(=O)CNC1=O` [CBM variant 5] (H-AQS(αMan)HYGQCGGIGYSGPTVCASGTTCQVLNPYYSQCL-OH; disulfide 8-25, 19-35), the “Change in Half-Life” value was determined as 34.8 min and the half-life was 44.4 ± 7.2 min.

For `CC[C@H](C)[C@@H]1NC(=O)CNC(=O)CNC(=O)[C@@H](NC(=O)[C@H](CCC(N)=O)NC(=O)CNC(=O)[C@H](Cc2ccc(O)cc2)NC(=O)[C@H](Cc2c[nH]cn2)NC(=O)[C@H](CO)NC(=O)[C@H](C)NC(=O)[C@@H](N)[C@@H](C)O)CSSC[C@@H]2NC(=O)[C@H]([C@@H](C)O)NC(=O)[C@H]([C@@H](C)O)NC(=O)CNC(=O)[C@H](CO)NC(=O)[C@H](C)NC(=O)[C@H](CSSC[C@@H](C(=O)N[C@@H](CC(C)C)C(=O)O)NC(=O)[C@H](CCC(N)=O)NC(=O)[C@H](CO)NC(=O)[C@H](Cc3ccc(O)cc3)NC(=O)[C@H](Cc3ccc(O)cc3)NC(=O)[C@@H]3CCCN3C(=O)[C@H](CC(N)=O)NC(=O)[C@H](CC(C)C)NC(=O)[C@H](C(C)C)NC(=O)[C@H](CCC(N)=O)NC2=O)NC(=O)[C@H](C(C)C)NC(=O)[C@H]([C@@H](C)O)NC(=O)[C@@H]2CCCN2C(=O)CNC(=O)[C@H](CO)NC(=O)[C@H](Cc2ccc(O)cc2)NC(=O)CNC1=O` [CBM variant 6] (H-TASHYGQCGGIGYSGPTVCASGTTCQVLNPYYSQCL-OH; disulfide 8-25, 19-35), the half-life was 9.6 ± 2.4 min.

Turning to `CC[C@H](C)[C@@H]1NC(=O)CNC(=O)CNC(=O)[C@@H](NC(=O)[C@H](CCC(N)=O)NC(=O)CNC(=O)[C@H](Cc2ccc(O)cc2)NC(=O)[C@H](Cc2c[nH]cn2)NC(=O)[C@H](CO[C@H]2O[C@H](CO)[C@@H](O)[C@H](O)[C@@H]2O)NC(=O)[C@H](C)NC(=O)[C@@H](N)[C@@H](C)O)CSSC[C@@H]2NC(=O)[C@H]([C@@H](C)O)NC(=O)[C@H]([C@@H](C)O)NC(=O)CNC(=O)[C@H](CO)NC(=O)[C@H](C)NC(=O)[C@H](CSSC[C@@H](C(=O)N[C@@H](CC(C)C)C(=O)O)NC(=O)[C@H](CCC(N)=O)NC(=O)[C@H](CO)NC(=O)[C@H](Cc3ccc(O)cc3)NC(=O)[C@H](Cc3ccc(O)cc3)NC(=O)[C@@H]3CCCN3C(=O)[C@H](CC(N)=O)NC(=O)[C@H](CC(C)C)NC(=O)[C@H](C(C)C)NC(=O)[C@H](CCC(N)=O)NC2=O)NC(=O)[C@H](C(C)C)NC(=O)[C@H]([C@@H](C)O)NC(=O)[C@@H]2CCCN2C(=O)CNC(=O)[C@H](CO)NC(=O)[C@H](Cc2ccc(O)cc2)NC(=O)CNC1=O` [CBM variant 7] (H-TAS(αMan)HYGQCGGIGYSGPTVCASGTTCQVLNPYYSQCL-OH; disulfide 8-25, 19-35), the “Change in Half-Life” value was found to be 6.6 min and the half-life was 16.2 ± 3 min.

Compound `CC[C@H](C)[C@@H]1NC(=O)CNC(=O)CNC(=O)[C@@H](NC(=O)[C@H](CCC(N)=O)NC(=O)CNC(=O)[C@H](Cc2ccc(O)cc2)NC(=O)[C@H](C)NC(=O)[C@H](CO)NC(=O)[C@H](CCC(N)=O)NC(=O)[C@@H](N)[C@@H](C)O)CSSC[C@@H]2NC(=O)[C@H]([C@@H](C)O)NC(=O)[C@H]([C@@H](C)O)NC(=O)CNC(=O)[C@H](CO)NC(=O)[C@H](C)NC(=O)[C@H](CSSC[C@@H](C(=O)N[C@@H](CC(C)C)C(=O)O)NC(=O)[C@H](CCC(N)=O)NC(=O)[C@H](CO)NC(=O)[C@H](Cc3ccc(O)cc3)NC(=O)[C@H](Cc3ccc(O)cc3)NC(=O)[C@@H]3CCCN3C(=O)[C@H](CC(N)=O)NC(=O)[C@H](CC(C)C)NC(=O)[C@H](C(C)C)NC(=O)[C@H](CCC(N)=O)NC2=O)NC(=O)[C@H](C(C)C)NC(=O)[C@H]([C@@H](C)O)NC(=O)[C@@H]2CCCN2C(=O)CNC(=O)[C@H](CO)NC(=O)[C@H](Cc2ccc(O)cc2)NC(=O)CNC1=O` [CBM variant 8] (H-TQSAYGQCGGIGYSGPTVCASGTTCQVLNPYYSQCL-OH; disulfide 8-25, 19-35) showed a half-life of 13.2 ± 3.6 min.
